# Measurements as given in patent US8557816B2, “Aurora kinase modulators and method of use” (Amgen Inc., priority 2007, dated 2013).
# Legend:
# AuroraB = molecular target: T1, AuroraB (Homo sapiens, UniProt Q96GD4); assay: AuroraB Homogeneous Time Resolved Fluorescent (HTRF) kinase assay; type: biochemical; settings: average; read-out: AurB_IC50_IP (uM Avg)
# T1 construct: 20 μL of AuroraB FL H is for a final volume of 41 μL; His
# Procedure, shortened: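 Read-out is time-resolved FRET between europium anti-phospho-H3 antibody and streptavidin-APC, added in EDTA buffer to stop the reaction and equilibrated about 60 min (ex 320, em 615 and 655 nm). Preceding reaction: ~90 min, full-length enzyme, ATP, 0.1 μM biotin-Histone H3 substrate, Mg/Mn HEPES buffer pH 7.5.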
# AuroraA-TPX2 = molecular target: T2, AuroraA-TPX2 (Homo sapiens, UniProt O14965); assay: AuroraA-TPX2 Homogeneous Time Resolved Fluorescent (HTRF) kinase assay; type: biochemical; settings: average; read-out: AurA_IC50_IP (uM Avg)
# T2 construct: 20 μL of AuroraA-TPX2 KD GST for a final volume of about 41 μL; GST
# T2 sequence (O14965 133-383 limits assumed): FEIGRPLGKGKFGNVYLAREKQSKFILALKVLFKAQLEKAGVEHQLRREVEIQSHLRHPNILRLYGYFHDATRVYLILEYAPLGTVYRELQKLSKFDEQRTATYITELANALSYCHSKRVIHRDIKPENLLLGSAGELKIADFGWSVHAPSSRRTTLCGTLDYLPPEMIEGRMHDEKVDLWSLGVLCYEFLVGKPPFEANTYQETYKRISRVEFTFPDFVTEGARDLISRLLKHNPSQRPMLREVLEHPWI
# T2 sequence (Q9ULW0 1-43 partner limits assumed): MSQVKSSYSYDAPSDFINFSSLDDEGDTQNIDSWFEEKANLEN
# Procedure, shortened: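 HTRF read-out (Eu 615 nm to APC 655 nm) of phosphorylated biotin-PLK, detected with 0.02 nM europium anti-phosphoPLK antibody and 0.0005 mg/mL SA-APC after overnight equilibration.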
# T1 sequence (Q96GD4 whole entry): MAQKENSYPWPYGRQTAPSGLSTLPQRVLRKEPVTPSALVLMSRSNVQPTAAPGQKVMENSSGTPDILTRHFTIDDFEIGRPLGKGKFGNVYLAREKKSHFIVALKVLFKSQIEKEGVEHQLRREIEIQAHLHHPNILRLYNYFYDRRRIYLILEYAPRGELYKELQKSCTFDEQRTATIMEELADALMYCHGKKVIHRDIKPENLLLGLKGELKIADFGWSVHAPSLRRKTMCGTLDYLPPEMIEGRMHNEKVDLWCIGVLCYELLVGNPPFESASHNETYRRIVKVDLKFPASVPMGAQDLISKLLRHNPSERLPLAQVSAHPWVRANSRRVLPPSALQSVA
IC50 (AuroraB) [µM],IC50 (AuroraA-TPX2) [µM],SMILES
0.006,0.022,"CCc1cc(-c2ccc(C)cc2)nnc1Nc1ccc(Oc2ccnc3cc(OC)cnc23)cc1 [compound 307, 4-ethyl-N-(4-((7-(methyloxy)-1,5-naphthyridin-4-yl)oxy)phenyl)-6-(4-methylphenyl)-3-pyridazinamine]"
0.004,0.029,"Clc1ccc(-c2nnc(Nc3ccc(Sc4ccnc5cccnc45)cc3)c3ccccc23)cc1 [compound 308, 4-(4-chlorophenyl)-N-(4-(1,5-naphthyridin-4-ylthio)phenyl)-1-phthalazinamine]"
0.003,0.054,"c1ccc(-c2nnc(Nc3ccc(Sc4ccnc5cccnc45)cc3)c3ccccc23)cc1 [compound 309, N-(4-(1,5-naphthyridin-4-ylthio)phenyl)-4-phenyl-1-phthalazinamine]"
0.017,0.209,"c1ccc(-c2nnc(Nc3ccc(Sc4ccnc5ccccc45)cc3)c3ccccc23)cc1 [compound 310, 4-phenyl-N-(4-(4-quinolinylthio)phenyl)-1-phthalazinamine]"
0.03,0.022,"Cc1csc(-c2nnc(Nc3ccc(Sc4ccnc5cc(C(=O)N6CCOCC6)sc45)cc3)c3ccccc23)c1 [compound 312, (7-(4-(4-(4-methylthiophen-2-yl)phthalazin-1-ylamino)phenylthio)thieno[3,2-b]pyridin-2-yl)(morpholino)methanone]"
0.056,0.091,"O=C(c1cc2nccc(Sc3ccc(Nc4nnc(-c5ccccc5)c5ccccc45)cc3)c2s1)N1CCOCC1 [compound 313, morpholino(7-(4-(4-phenylphthalazin-1-ylamino)phenylthio)thieno[3,2-b]pyridin-2-yl)methanone]"
0.057,0.058,"O=C(c1cc2nccc(Sc3ccc(Nc4nnc(-c5ccc(Cl)cc5)c5ccccc45)cc3)c2s1)N1CCOCC1 [compound 314, (7-(4-(4-(4-chlorophenyl)phthalazin-1-ylamino)phenylthio)thieno[3,2-b]pyridin-2-yl)(morpholino)methanone]"
0.031,0.036,"COc1ccc2nccc(Sc3ccc(Nc4nnc(-c5ccc(Cl)cc5)c5ccccc45)cc3)c2c1 [compound 315, 4-(4-chlorophenyl)-N-(4-(6-methoxyquinolin-4-ylthio)phenyl)phthalazin-1-amine]"
0.023,0.014,"COc1cnc2c(Oc3ccc(Nc4nnc(-c5cc(Cl)cs5)c5ccccc45)cc3)ccnc2c1 [compound 316, 4-(4-chloro-2-thienyl)-N-(4-((7-(methyloxy)-1,5-naphthyridin-4-yl)oxy)phenyl)-1-phthalazinamine]"
0.015,0.018,"COc1cnc2c(Oc3ccc(Nc4nnc(-c5cccc(C)c5)c5ccccc45)cc3)ccnc2c1 [compound 317, N-(4-((7-(methyloxy)-1,5-naphthyridin-4-yl)oxy)phenyl)-4-(3-methylphenyl)-1-phthalazinamine]"
0.02,0.176,"COc1ccc2c(Cc3ccc(Nc4nnc(-c5ccccc5)c5ccccc45)cc3)ccnc2c1 [compound 319, N-(4-((7-(methyloxy)-4-quinolinyl)methyl)phenyl)-4-phenyl-1-phthalazinamine]"
0.067,0.112,"CCc1cc(N2CC[C@H]3CCCC[C@@H]3C2)nnc1Nc1ccc(Oc2ccnc3cc(OC)cnc23)cc1 [compound 320, 4-ethyl-N-(4-((7-(methyloxy)-1,5-naphthyridin-4-yl)oxy)phenyl)-6-((4aR,8aS)-octahydro-2(1H)-isoquinolinyl)-3-pyridazinamine]"
0.051,0.304,"CCc1cc(N2CCCCC2)nnc1Nc1ccc(Oc2ccnc3cc(OC)cnc23)cc1 [compound 321, 4-ethyl-N-(4-((7-(methyloxy)-1,5-naphthyridin-4-yl)oxy)phenyl)-6-(1-piperidinyl)-3-pyridazinamine]"
0.032,0.033,"CCc1cc(-c2ccc(C)cc2)nnc1Nc1ccc(Sc2ccnc3cc(OC)cnc23)cc1 [compound 322, 4-ethyl-N-(4-((7-(methyloxy)-1,5-naphthyridin-4-yl)thio)phenyl)-6-(4-methylphenyl)-3-pyridazinamine]"
0.063,0.035,"Clc1ccc(-c2nnc(Nc3ccc(Sc4ccnc5cc(Br)cnc45)cc3)c3ccccc23)cc1 [compound 324, N-(4-((7-bromo-1,5-naphthyridin-4-yl)thio)phenyl)-4-(4-chlorophenyl)-1-phthalazinamine]"
0.019,0.013,"COc1cnc2c(Sc3ccc(Nc4nnc(-c5ccc(Cl)cn5)c5ccccc45)cc3)ccnc2c1 [compound 325, 4-(5-chloro-2-pyridinyl)-N-(4-((7-(methyloxy)-1,5-naphthyridin-4-yl)thio)phenyl)-1-phthalazinamine]"

IC50 (AuroraB) [µM],IC50 (AuroraA-TPX2) [µM],SMILES
0.039,0.026,"COc1cc2c(Oc3ccc(Nc4nnc(-c5ccccc5)c5ccccc45)cc3)ccnc2cc1OCc1ccccc1 [compound 326, N-(4-((6-(methyloxy)-7-((phenylmethyl)oxy)-4-quinolinyl)oxy)phenyl)-4-phenyl-1-phthalazinamine]"
0.014,0.118,"COc1cccc(-c2nnc(Nc3ccc(Sc4ccnc5ccccc45)cc3)c3ccccc23)n1 [compound 327, 4-(6-(methyloxy)-2-pyridinyl)-N-(4-(4-quinolinylthio)phenyl)-1-phthalazinamine]"
0.032,0.047,"COc1ccc2c(Cc3ccc(Nc4nnc(-c5ccc(Cl)cc5)c5ccccc45)cc3)ccnc2c1 [compound 328, 4-(4-chlorophenyl)-N-(4-((7-(methyloxy)-4-quinolinyl)methyl)phenyl)-1-phthalazinamine]"
0.009,0.114,"c1ccc(-c2nnc(Nc3ccc(Sc4ccnc5[nH]ccc45)cc3)c3ccccc23)cc1 [compound 329, 4-phenyl-N-(4-(1H-pyrrolo[2,3-b]pyridin-4-ylthio)phenyl)-1-phthalazinamine]"
0.009,0.038,"Clc1ccc(-c2nnc(Nc3ccc(Sc4ccnc5[nH]ccc45)cc3)c3ccccc23)cc1 [compound 330, 4-(4-chlorophenyl)-N-(4-(1H-pyrrolo[2,3-b]pyridin-4-ylthio)phenyl)-1-phthalazinamine]"
0.155,0.192,"COc1ccc2c(Sc3ccc(Nc4nnc(-c5ccccc5)c5ccccc45)cc3)ccnc2c1 [compound 331, N-(4-((7-(methyloxy)-4-quinolinyl)thio)phenyl)-4-phenyl-1-phthalazinamine]"
0.003,0.016,"Clc1ccc(-c2nnc(Nc3ccc(Sc4ccnc5ccsc45)cc3)c3ccccc23)cc1 [compound 332, 4-(4-chlorophenyl)-N-(4-(thieno[3,2-b]pyridin-7-ylthio)phenyl)-1-phthalazinamine]"
0.067,0.049,"COc1ccc2c(Sc3ccc(Nc4nnc(-c5ccc(Cl)cc5)c5ccccc45)cc3)ccnc2c1 [compound 334, 4-(4-chlorophenyl)-N-(4-(7-methoxyquinolin-4-ylthio)phenyl)phthalazin-1-amine]"
0.021,0.062,"CCc1cc(-c2cccc(Cl)c2)nnc1Nc1ccc(Oc2ccnc3cc(OC)cnc23)cc1 [compound 335, 6-(3-chlorophenyl)-4-ethyl-N-(4-(7-methoxy-1,5-naphthyridin-4-yloxy)phenyl)pyridazin-3-amine]"
0.01,0.019,"Cc1csc(-c2nnc(Nc3ccc(Sc4ccnc5cccnc45)cc3)c3ccccc23)c1 [compound 336, N-(4-(1,5-naphthyridin-4-ylthio)phenyl)-4-(4-methylthiophen-2-yl)phthalazin-1-amine]"
0.015,0.076,"COc1cnc2c(Oc3ccc(Nc4nnc(N5CCSCC5)c5ccccc45)cc3)ccnc2c1 [compound 337, N-(4-(7-methoxy-1,5-naphthyridin-4-yloxy)phenyl)-4-thiomorpholinophthalazin-1-amine]"
0.009,0.005,"Cn1cc(-c2ccc3c(Oc4ccc(Nc5nnc(-c6ccccc6)c6ccccc56)cc4)ccnc3c2)cn1 [compound 338, N-(4-(7-(1-methyl-1H-pyrazol-4-yl)quinolin-4-yloxy)phenyl)-4-phenylphthalazin-1-amine]"
0.028,0.021,"c1ccc(-c2nnc(Nc3ccc(Oc4ccnc5cc(-c6ccsc6)ccc45)cc3)c3ccccc23)cc1 [compound 339, 4-phenyl-N-(4-(7-(thiophen-3-yl)quinolin-4-yloxy)phenyl)phthalazin-1-amine]"
0.045,0.189,"Fc1cc(F)c2c(Sc3ccc(Nc4nnc(-c5ccc(Cl)cc5)c5ccccc45)cc3)ccnc2c1 [compound 342, 4-(4-chlorophenyl)-N-(4-(5,7-difluoroquinolin-4-ylthio)phenyl)phthalazin-1-amine]"
0.008,0.024,"c1ccc(-c2nnc(Nc3ccc(Oc4ccnc5cc(-c6ccoc6)ccc45)cc3)c3ccccc23)cc1 [compound 343, N-(4-(7-(furan-3-yl)quinolin-4-yloxy)phenyl)-4-phenylphthalazin-1-amine]"
